Measured values reported in US9301885B2, “Absorbent article” (UNICHARM CORPORATION, priority 2011, dated 2016).

Experiment: Water solubility
Settings: in 100 g of water at 25° C., 24 hours, visual evaluation
Description: As used herein, the term “solubility” used herein in regard to water solubility includes cases where the sample completely dissolves in deionized water to form a homogeneous mixture, and cases where the sample is completely emulsified. As used herein, “completely” means that none of the sample remains in the deionized water.

CCCCC(CC)C(=O)OCC(C)(C)COC(=O)C(CC)CCCC (centres unmarked) [H-208BRS, Neopentylglycol di(2-ethylhexanoate)]
Water solubility (Table 2): <0.05 g | Water solubility (Table 3): <0.05 g
